The test system of series [1] is human skin. The experiment in a line: Contact with human skin. The class given is in vivo. Particulars: solution with pH of less than 0.5. The protocol: As discussed above, AGIIS has relatively less dehydrating properties (such as charring sucrose) as compared to the saturated solution of CaSO4 in the same concentration of H2SO4. […] AGIIS has low volatility at room temperature and pressure.
In view of the need to find new phytogenic friendly alternatives for controlling the spread of Coqui frogs, a commercially available food sanitation product (i.e. Acidic Calcium Sulfate (“ACS”) was evaluated for inclusion in the current inventory of chemicals that can be applied as sprays. ACS and functional equivalents thereof are made from ingredients that are generally regarded as safe (“GRAS”), and is approved for use in food by the FDA and USDA. Although not wanting to be bound by theory, the efficacy of this product stems from its very unique characteristic of being able to donate a very high activity of hydrogen ions (low pH), while at the same time, having very low oxidative effects on plants and human skin. For example, a five (5) normal concentration of ACS having a pH of approximately zero may be held in the human hand without harm to the person holding the acid. In contrast, when very small amounts are applied to the skin of Coqui frogs it is quickly absorbed and respiration is immediately impaired with lethal results. […]

Series [2] relates to frogs. The experiment in a line: Frog killing time with different concentrations. The class given is in vivo, Eleutherodactylus coqui. Here is the method: Additionally, this formulation killed 10 out of 10 frogs within about 15 minutes.
Series [3] concerns Coqui. Particulars: in vivo; cited from earlier work.
The test system of series [4] is common plants. The arrangement: key: severe: most if not all the leaves turned black; flowers and leaves became bleached and recovery was slow; moderate: young leaves and new shoots burned; the outer edges of leaves burned and dropped; dark brown spots appeared where acid may have concentrated; and recovery of the plants were slow; slight: the leaves were spotted white, or lesions formed on the trunk. Particulars: citric acid 25%, three days after treatment, cited from earlier work.

Series [5] relates to mature Palm trees. Briefly: Phytotoxicity to sprayed palm trees. The class given is in vivo. The following applies: spray on mature palm trees. The protocol: Large-scale examples of the product's use and phytotoxicity at the same concentration (about 11.5%) as used in previous examples were also conducted by Palms of Hawaii. A five-gallon back pack sprayer equipped with a mist spray nozzle was used to spray mature Palm trees being prepared for distribution with about a gallon of spray each.
Upon spraying palm trees having frogs, frogs leap off the root balls and crowns and from the junctions between the fronds and tree trunks. The nurseryman rated the complete removal, if not extermination of all frogs from the trees as excellent.

Molecules are shown by their SMILES. Like-named read-outs stand apart in the source and are kept apart here.

Turning to `O=S(=O)(O)O` [sulfuric acid], in series [1], the “irritation of hand put into solution” value is “an irritation would occur within a relatively short span of time”.

With `CCC(=O)O` [propionic acid], the “killing speed compared with standard citric acid” value in series [2] (5% solution) was “killed equally fast”; in series [2] (10% solution), “killed frogs faster than standard citric acid”. The lethality to frogs result in series [2] (concentrations from about 5% to about 10%) is “lethal to the frogs in the test group”.

On to `[Ca+2].[OH-].[OH-]` [hydrated lime], for which the “effectiveness in eradicating frogs” value in series [3] was “not entirely effective”.

With `O=C(O)CC(O)(CC(=O)O)C(=O)O` [citric acid], the phytotoxicity rating result in series [4] (guava plant, bromeliad, dendrobium orchid and leatherleaf fern) is reported as “moderate”; in series [4] (passion fruit and payaya), “slight”; in series [4] (streptocarpus, calathea and eggplants), “severe”. Moreover, in series [5], the “phytotoxicity to palm trees” value was “typically causes browning”.

These data come from US8287919B2, “Low environmental impact pesticide made from “gras” ingredients for use against coqui frogs and other species” (priority 2009, dated 2012).
